Laboratory results from patent US20110136245A1, “SYNERGISTIC INTERACTIONS OF PHENOLIC COMPOUNDS FOUND IN FOOD” (priority 2009, published 2011).

Key:
[1] = marketed products and foods listed for comparison; cited from earlier work
[2] = marketed products and foods listed for comparison; cited from earlier work; remark: listed apart in the source
[3] = ORAC assay, phenolic compounds found in strawberries; type: biochemical; conditions: strawberry combinations and individual antioxidants; values per gram
From the text: FIG. 5 provides the structures. […] Solubility was checked after thawing and dilution. […] All possible combinations of two compounds were mixed on an equal volume basis after being prepared at the concentrations found in Table 4 to ensure relative concentrations were maintained. Mixtures were then further diluted to match the lowest individual compound molarity to fit the Trolox standard curve. […] The same pattern was repeated for combinations of four: the top three synergistic combinations of three were combined with all possible fourth compounds. No statistically significant increases in antioxidant capacity were found for combinations of four. […] Combinations were prepared on the same day of their ORAC assay. ORAC assays were carried out according to Dávalos et al. […] Parameters of the assay were as follows: reader temperature: 37 degrees C., cycle number, 120; cycle time, 60 seconds; shaking mode, 3 seconds of orbital shaking before each cycle. A fluorescence filter with an excitation wavelength of 485/20 nm and an emission wavelength of 520/20 nm was used. Samples were prepared in 96-well plates in a mirror fashion, based on a planned layout. Each mirrored duplicate was averaged and counted as one data point. All samples were measured in quadruplicate (eight wells total) to obtain necessary statistical power. […] The data were analyzed using a Microsoft Excel 2007 (Microsoft, Redmond, Wash., USA) spreadsheet to determine area under the curve and to convert the data to Trolox equivalents based on the Trolox standard curve. […] Likewise, for combinations of three and four, the difference was calculated by subtracting the average of the individual three or four compounds from the combination. […] Difference=(combination abc)−(combination ab+individual c) (7) Difference=(combination abcd)−(combination abc+d) (8)

[4] = Solubility on stock solution preparation; conditions: weighable concentrations, stock solution in methanol / NaOH
Procedure: Because of the high water content of oranges, no density adjustment was made. Compounds were prepared assuming 100 g was 100 mL in volume. All compounds except hesperidin and luteolin were weighed (10× to 1000× of Table 1 concentration to facilitate weighing) and dissolved in methanol. […] The phenolic stock solutions were stored in 1 mL aliquots at −20.C. Phenolics were brought to RT, vortexed, and diluted in 7:3 (v:v) acetone:water to match the fruit concentrations in Table 1. To fit the Trolox standard curve (see below for assay description), compounds were further diluted in 7:3 (v:v) acetone:water to the following molar concentrations prior to transfer to the 96-well plate: chlorogenic acid, 10.7 μM; hesperidin, 10.2 μM; luteolin, 2.45 μM; myricetin, 0.786 μM; naringenin, 2.61 μM; pcoumaric acid, 1.95 μM; and quercetin, 6.62 μM. Solubility was checked after thawing and dilution. All work involving phenolic compounds, fluorescein, and Trolox was performed in dark conditions to minimize degradation.
It was assumed that 1 g fruit puree was 1 ml in volume for sample preparation, as a density adjustment would not change relative concentrations that would be tested. All compounds except ellagic acid were weighed then dissolved in methanol. […] The phenolic stock solutions were stored in 1 mL aliquots at −20° C. […]

[5] = published values (Jorgensen & Skibsted 1998; Foley et al. 1999); cited from earlier work

## O=C1O[C@H]([C@@H](O)CO)C(O)=C1O [ascorbic acid (vitamin C), ascorbic acid]
[1]
  ORAC Value: 2,000 mol Trolox Equivalents/g of mixture
[2]
  ORAC Value (μmol Trolox Equivalents/g of mixture): 2,000 μmol Trolox Equivalents/g of mixture

## O=c1oc2c(O)c(O)cc3c(=O)oc4c(O)c(O)cc1c4c23 [ellagic acid]
[3]
  ORAC Value (µmol Trolox equivalents/g): 7820 µmol Trolox equivalents/g

## COc1ccc([C@@H]2CC(=O)c3c(O)cc(O[C@@H]4O[C@H](CO[C@@H]5O[C@@H](C)[C@H](O)[C@@H](O)[C@H]5O)[C@@H](O)[C@H](O)[C@H]4O)cc3O2)cc1O [hesperidin]
[4]
  solubility: only fully soluble at weighable concentrations in a basic solution

## O=c1c(O)c(-c2ccc(O)cc2)oc2cc(O)cc(O)c12 [kaempferol]
[5]
  one-electron reduction potential: 0.39 V

## O=C(O)/C=C/c1ccc(O)cc1 [p-coumaric acid]
[5]
  one-electron reduction potential: 0.59 V
[3]
  ORAC Value (µmol Trolox equivalents/g): 20500 µmol Trolox equivalents/g

## O=c1c(O[C@@H]2O[C@H](CO)[C@@H](O)[C@H](O)[C@H]2O)c(-c2ccc(O)c(O)c2)oc2cc(O)cc(O)c12 [quercetin-3-glucoside]
[3]
  ORAC Value (µmol Trolox equivalents/g): 20300 µmol Trolox equivalents/g

## O=c1c(O)c(-c2ccc(O)c(O)c2)oc2cc(O)cc(O)c12 [quercetin]
[5]
  one-electron reduction potential: 0.29 V
